Experimental data as given in PMC9214036, “Design and Synthesis of Novel PRMT1 Inhibitors and Investigation of Their Effects on the Migration of Cancer Cell” (Frontiers in Chemistry, 2022).
Counter-ions that a name gives are not always drawn.

How the values were obtained:
PRMT1 = PRMT1 (Homo sapiens, UniProt Q99873); test: Radioactive PRMT1 methylation inhibition assay ([3H]-SAM, biotinylated histone H4 peptide); type: biochemical
Experimental: A series of 2,5-substituted furan and 2,4-substituted thiazole derivatives were synthesized and screened for their inhibitory effects on PRMT1 by using the radioactive PRMT1 methylation inhibition assay, which measured the amount of methyl groups that transferred from [^3H]-SAM to a biotinylated histone H4 peptide [ac-[…](Biotin)] (Tables 1–3).
The enzyme inhibitory activities and selectivity were measured by the radioisotope assay and AlphaLISA assay in ShangHai Chempartner Co., Ltd., according to the standard protocol. […] After 250 nL of compound solutions were added to the assay plate, 15 μl of PRMT1 enzyme solution or ×1 assay buffer for negative control was transferred to each well of prepared compound stock plates and the whole system (the final concentration of PRMT1 was 0.5 nM or 2 nM in the system) was incubated for 15 min at room temperature. […] Afterward, the reaction was stopped with the addition of 5 μl cold SAM solution to each well. Then, 25 μl volume per well was transferred to a Flashplate from the assay plate and incubated for a minimum of 1 h at room temperature. Finally, the Flashplate was washed with dH2O and 0.1% Tween-20 three times and then the reading plate in Microbeta using the program ^3H-Flashplate. The data were analyzed in GraphPad Prism 5 to obtain IC50 values.

A549 cells [1] = test: CCK-8 cell viability assay in A549 cells; type: cell-based, human; settings: concentrations of 0–50 μM
Experimental: (§1) To determine the effects of WCJ-394 on the inhibition of TGF-β1-induced epithelial–mesenchymal transition (EMT) in A549 cells, the characterized proteins were detected using the Western blotting assay.
(§2) Cells were seeded into a 96-well plate; after 12 h of attachment, the cells were treated with different concentrations (0–1,600 μΜ) of WCJ-394 for 48 h. Cell viability was assessed by a Cell Counting Kit-8 (CCK-8; MCE) according to the manufacturer’s instructions. Briefly, after treatment, the CCK-8 solution was added to the culture medium and incubated at 37°C for 1 h. Cell viability was assessed by measuring the absorbance at 450 nm. In the subsequent luciferase assays, the effects of WCJ-394 on the cell viability were examined in parallel to exclude the compound-induced cell death.

[2] = CCK-8 cell viability assay in A549 cells; type: cell-based, human; settings: human, A549 cells treated for 48 h, read-out: IC50 (CC50), A549 cell viability
Experimental: as §1, §2

PRMT8 = PRMT8 (Homo sapiens, UniProt Q9NR22); test: AlphaLISA selectivity assay, PRMT8; type: biochemical; settings: read-out: IC50 against PRMT8
PRMT8, sequence (Q9NR22 whole entry): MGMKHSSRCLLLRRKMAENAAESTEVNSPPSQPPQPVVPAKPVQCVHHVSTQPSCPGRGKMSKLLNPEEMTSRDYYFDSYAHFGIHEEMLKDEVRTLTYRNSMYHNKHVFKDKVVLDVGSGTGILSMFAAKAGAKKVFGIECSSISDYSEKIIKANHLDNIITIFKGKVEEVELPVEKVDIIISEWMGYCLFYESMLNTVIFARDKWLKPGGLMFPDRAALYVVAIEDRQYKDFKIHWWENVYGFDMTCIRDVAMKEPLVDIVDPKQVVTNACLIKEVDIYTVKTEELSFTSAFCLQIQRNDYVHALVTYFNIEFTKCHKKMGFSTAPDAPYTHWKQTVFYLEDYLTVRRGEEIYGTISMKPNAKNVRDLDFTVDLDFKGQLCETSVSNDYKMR
Experimental: (§3) […]. […] Next, 5 μl of enzyme solution was transferred to the assay plate and incubated at room temperature for 15 min. Then, 5 μl of substrate solution was added to each well to start the reaction. After incubation at room temperature for 30 min (PRMT4,6) and 60 min (PRMT3,8), 15 μl of acceptor and donor bead mix solution were added to the assay plate and incubated at room temperature for 60 min with subdued light. The signal was collected with Envision or EnSpire with Alpha mode. The data were analyzed in GraphPad Prism 5 to obtain IC50 values.

A549 cells [3] = test: Transwell migration assay, TGF-β1-induced A549 cell migration; type: cell-based, human; settings: TGF-β1, WCJ-394 pretreatment 5, 10, 20 μM
Experimental: A549 cells in the logarithmic growth phase were resuspended with a serum-free DMEM medium and seeded into the 8-μm transwell filter inserts at a density of 8 × 10^3 cells per well; meanwhile, 600 μl medium containing 10% FBS was added into the lower chambers of the 24-well cell culture plate. […] After incubation, the cells in the upper chambers were carefully removed with a cotton swab, while the cells that had traversed to the bottom side of the membrane were fixed with 4% paraformaldehyde for 15 min and stained with 0.1% crystal violet for 20 min. The chambers were washed with PBS buffer to remove extra crystal violet. Three fields of view were randomly taken and photographed from the central and surrounding parts of each membrane under a microscope at ×100 magnification, and cell number was calculated by ImageJ software.

A549 cells [4] = test: Scratch wound healing assay, TGF-β1-induced A549 cell migration; type: cell-based, human
Experimental: In the scratch wound healing assay, the percentages of scratch widths at 24 and 48 h compared to that of 0 h were used to denote the rate of A549 cell migration. As shown in Figures 6A–C, the TGF-β1 treatment promoted the scratched wound closure.
The monolayer cell was scratched with a new 10 μl pipette tip across the center of the well, and the detached cells were gently rinsed with PBS buffer. […] The scratch was photographed through a microscope at ×100 magnification at 0, 24, and 48 h. Then, the scratch width was quantified by ImageJ software and the rate of wound closure was calculated with the final values expressed as a migration percentage of the scratch width relative to 0 h.

MLEC = MLEC cell viability (CCK-8) under the luciferase assay condition; type: cell-based, mink; settings: concentration up to 100 μM, same condition as luciferase assay
Experimental: as §2
The luciferase activity was measured in a luminometer.

TGF-β signaling = test: cells; settings: 18 h, read-out: IC50, inhibition of TGF-β signaling
Experimental: The medium was changed into DMEM with 0.1% FBS. […] The final concentration of DMSO should be maintained at 0.1%. After incubation, the medium was removed and the cells were rinsed with PBS to remove any residual compound. One hundred microliters of the Steady-Glo® Luciferase Assay reagent (Promega) was added to each well, and the cells were lysed in the dark for 10 min on a horizontal shaker. The luciferase activity was measured in a luminometer.

PRMT3 = PRMT3 (Homo sapiens, UniProt O60678); test: AlphaLISA selectivity assay, PRMT3; type: biochemical; settings: read-out: IC50 against PRMT3
PRMT3, sequence (O60678 whole entry): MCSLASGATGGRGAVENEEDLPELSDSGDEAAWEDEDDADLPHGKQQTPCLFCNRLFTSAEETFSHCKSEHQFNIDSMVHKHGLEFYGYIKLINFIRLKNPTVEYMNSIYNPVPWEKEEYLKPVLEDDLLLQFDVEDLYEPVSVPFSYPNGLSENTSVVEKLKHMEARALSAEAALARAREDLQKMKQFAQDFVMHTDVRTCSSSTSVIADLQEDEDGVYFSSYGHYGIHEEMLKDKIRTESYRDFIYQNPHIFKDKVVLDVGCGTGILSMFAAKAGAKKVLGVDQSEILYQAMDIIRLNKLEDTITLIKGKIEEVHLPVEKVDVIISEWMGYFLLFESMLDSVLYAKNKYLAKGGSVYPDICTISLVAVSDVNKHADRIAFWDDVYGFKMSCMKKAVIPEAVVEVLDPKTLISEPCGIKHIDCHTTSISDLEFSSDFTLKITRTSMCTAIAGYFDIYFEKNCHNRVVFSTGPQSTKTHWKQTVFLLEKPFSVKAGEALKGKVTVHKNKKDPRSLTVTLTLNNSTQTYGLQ
Experimental: as §3

A549 cells [5] = test: Western blot of PRMT-related proteins (SDMA, ADMA, DDAH, PRMT1) in A549 cells; type: cell-based, human; settings: WCJ-394 5, 10, 20 μM, 48 h
Experimental: (§4) A549 cells in the logarithmic growth phase were seeded into a 6-well cell culture plate at a density of 3 × 10^5 cells per well.
(§5) A549 cells were lysed in RIPA buffer, which contains protease and phosphatase inhibitors, and then harvested in Eppendorf tubes for centrifugation (14,000 rpm for 10 min at 4°C) to remove cell debris. The supernatants were transferred into new Eppendorf tubes, and the protein concentration was quantified with a BCA kit (Thermo Fisher). The protein samples were separated by 10% SDS-PAGE and transferred onto polyvinylidene difluoride (PVDF) membranes. The membranes were blocked for 1 h at room temperature in 5% BSA and then incubated with the corresponding primary antibodies overnight at 4°C and then incubated with secondary antibodies for another 1 h at room temperature. After being washed with TBST buffer three times, the PVDF membranes were visualized with ECL reagents (Millipore) and the Western blot results were further analyzed by ImageJ software (National Institutes of Health).

A549 cells [6] = test: Western blot of TGF-β1-induced mesenchymal markers (EMT) in A549 cells; type: cell-based, human; settings: TGF-β1 48 h, WCJ-394 pretreatment 5, 10, 20 μM
Experimental: as §4, §5

PRMT6 = PRMT6 (Homo sapiens, UniProt Q96LA8); test: AlphaLISA selectivity assay, PRMT6; type: biochemical; settings: read-out: IC50 against PRMT6
PRMT6, sequence (Q96LA8 whole entry): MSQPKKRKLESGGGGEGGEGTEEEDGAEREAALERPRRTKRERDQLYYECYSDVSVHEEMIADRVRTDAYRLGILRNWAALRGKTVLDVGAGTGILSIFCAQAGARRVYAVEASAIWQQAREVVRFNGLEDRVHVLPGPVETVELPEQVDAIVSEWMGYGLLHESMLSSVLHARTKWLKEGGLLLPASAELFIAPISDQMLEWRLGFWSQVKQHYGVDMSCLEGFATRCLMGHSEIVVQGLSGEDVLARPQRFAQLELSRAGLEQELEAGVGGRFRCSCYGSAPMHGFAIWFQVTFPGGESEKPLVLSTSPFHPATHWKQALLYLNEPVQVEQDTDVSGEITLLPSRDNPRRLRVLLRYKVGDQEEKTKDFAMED
Experimental: as §3

PRMT4 = biological target: T1, PRMT4 (Homo sapiens, UniProt Q86X55); test: AlphaLISA selectivity assay, PRMT4; type: biochemical; settings: read-out: IC50 against PRMT4
T1 sequence (Q86X55 1-608): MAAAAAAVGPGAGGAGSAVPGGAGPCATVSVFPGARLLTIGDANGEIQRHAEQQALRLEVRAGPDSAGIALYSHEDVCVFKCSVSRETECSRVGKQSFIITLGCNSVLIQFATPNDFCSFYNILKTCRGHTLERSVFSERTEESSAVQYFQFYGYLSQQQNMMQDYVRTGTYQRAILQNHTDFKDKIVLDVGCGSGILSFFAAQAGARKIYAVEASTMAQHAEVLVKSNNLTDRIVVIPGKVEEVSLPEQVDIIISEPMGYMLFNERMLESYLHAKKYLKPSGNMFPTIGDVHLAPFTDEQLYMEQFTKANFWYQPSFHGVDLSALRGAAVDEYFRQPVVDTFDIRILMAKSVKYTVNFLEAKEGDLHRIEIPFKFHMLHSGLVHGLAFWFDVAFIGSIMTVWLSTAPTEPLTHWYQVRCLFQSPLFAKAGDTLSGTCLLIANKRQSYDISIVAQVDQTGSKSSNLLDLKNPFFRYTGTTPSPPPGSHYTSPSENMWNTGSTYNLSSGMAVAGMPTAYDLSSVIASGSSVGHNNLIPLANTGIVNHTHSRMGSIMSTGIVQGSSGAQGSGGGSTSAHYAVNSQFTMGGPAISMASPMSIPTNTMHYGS
Experimental: as §3

PRMT1, sequence (Q99873 whole entry): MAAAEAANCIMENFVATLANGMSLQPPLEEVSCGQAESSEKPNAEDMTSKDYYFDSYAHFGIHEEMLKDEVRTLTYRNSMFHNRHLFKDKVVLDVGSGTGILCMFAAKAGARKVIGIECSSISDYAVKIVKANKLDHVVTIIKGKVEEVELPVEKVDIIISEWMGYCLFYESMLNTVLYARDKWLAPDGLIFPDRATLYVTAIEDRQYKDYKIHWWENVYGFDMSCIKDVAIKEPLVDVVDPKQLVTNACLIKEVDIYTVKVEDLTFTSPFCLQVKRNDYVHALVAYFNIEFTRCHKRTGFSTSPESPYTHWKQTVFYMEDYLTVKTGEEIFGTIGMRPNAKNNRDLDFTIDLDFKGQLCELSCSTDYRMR

In the case of `CN(CCN)Cc1csc(-c2ccc(C(=N)N)nc2)n1` [Compound 1r, N′-[2-(2-Aminocarboximido-5-pyridyl)thiazol-4-yl-methyl]-N′-methylethylenediamine Hydrochloride], the “PRMT1 IC50 compared with SAH” value (PRMT1; fold weaker than SAH) is reported as “about two times weaker than SAH”, the IC50 (PRMT1; radioactive methylation assay, read-out: IC50 (μM) against PRMT1) is reported as 1.21 ± 0.11 µM and the inhibition at 10 µM (PRMT1; read-out: % Inhibition of PRMT1 (at 10 μM)) is reported as 98.5 ± 0.04%. For the same molecule, the “cytotoxicity in A549 cells” value (A549 cells [1]) was “did not result in any cytotoxicity”, the IC50 at 48 h [2] was 584 µM and the IC50 (PRMT8) was 5.71 ± 0.05 µM. The “number of migrated cells (transwell)” value (A549 cells [3]) was “significantly decreased the number of migrated cells in a concentration-dependent manner”, the “TGF-β1-induced cell migration (scratched wound closure) at 24 h” value (A549 cells [4]; WCJ-394 pretreatment at 10 or 20 μM, 24 h) was “significantly inhibited” and the “TGF-β1-induced cell migration (scratched wound closure) at 48 h” value (A549 cells [4]; WCJ-394 pretreatment, 48 h) was “retardation effect of WCJ-394 on cell migration was further detected”. The “cytotoxicity in MLEC (cell viability)” value (MLEC) was “without showing significant cytotoxicity”, the IC50 (TGF-β signaling) was 17.7 µM and the IC50 (PRMT3) was 57.6 ± 0.62 µM. For the same molecule, the “expression level of ADMA” value (A549 cells [5]) was “significantly reduced in a concentration-dependent manner”, the “expression of DDAH” value (A549 cells [5]) was “significantly decreased in a concentration-dependent manner” and the “expression of PRMT1” value (A549 cells [5]) was “not significantly affected”. The “expression of SDMA” value (A549 cells [5]) was “not affected”, the “expression of EMT-related proteins (fibronectin, N-cadherin, MMP-2, α-SMA)” value (A549 cells [6]) was “decreased (p < 0.05) by the pretreatment of WCJ-394 in a concentration-dependent manner” and the IC50 (PRMT6) was 29.7 ± 2.03 µM. The IC50 (PRMT4) was 1.64 ± 0.17 µM.
